Test results taken from patent US9302999B2, “Substituted triazoles as herbicides” (E. I. DU PONT DE NEMOURS AND COMPANY, priority 2012, dated 2016).

Assays:
Type in all cases: in vivo
[1] = test system: galium (catchweed bedstraw, Galium aparine); test: Test C pre-/postemergence: galium
Summary of the method: (§1)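 Preemergence on seeds in loam/sand, postemergence on 2–18 cm (1–4-leaf) plants in peat-based medium; compounds in non-phytotoxic solvent with surfactant. After 13–15 days in greenhouse, visual rating versus controls, 0 (no effect) to 100 (complete control).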

[2] = test system: ryegrass, Italian (Italian ryegrass, Lolium multiflorum); test: Test C pre-/postemergence: ryegrass, Italian
Summary of the method: as §1

kochia (Kochia scoparia) = test: Test C pre-/postemergence: kochia
Summary of the method: as §1

[3] = test system: foxtail, giant (giant foxtail, Setaria faberii); test: Test C pre-/postemergence: foxtail, giant
Summary of the method: as §1

[4] = test system: velvetleaf (Abutilon theophrasti); test: Test C pre-/postemergence: velvetleaf
Summary of the method: as §1

[5] = test system: ducksalad (Heteranthera limosa); test: Test B flooded paddy: ducksalad; details: Flood; 250 g ai/ha; applied to paddy water at 2-leaf stage; visually evaluated after 13 to 15 days
Summary of the method: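 Visual ratings on a 0–100 scale, where 0 means no effect and 100 means complete control, were assigned by comparison with controls 13 to 15 days after treatment. Compounds went into paddy water over 2-leaf plants flooded to 3 cm.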

wild oat (Avena fatua) = test: Test C pre-/postemergence: wild oat
Summary of the method: as §1

corn (Zea mays) = test: Test C pre-/postemergence: corn
Summary of the method: as §1

[6] = test system: morningglory (Ipomoea coccinea); test: Test C pre-/postemergence: morningglory
Summary of the method: as §1

[7] = test system: large crabgrass (Digitaria sanguinalis); test: Test C pre-/postemergence: large crabgrass
Summary of the method: as §1

[8] = test system: johnsongrass (Sorghum halepense); test: Test C pre-/postemergence: johnsongrass
Summary of the method: as §1

[9] = Postemergence, 31 g ai/ha, scale 0 to 100 (0 no effect, 100 complete control)
[10] = Postemergence, 62 g ai/ha, scale 0 to 100 (0 no effect, 100 complete control)
[11] = Postemergence, 125 g ai/ha, scale 0 to 100, 0 no effect, 100 complete control
[12] = Postemergence, 250 g ai/ha, scale 0 to 100
[13] = Preemergence, 31 g ai/ha, scale of 0 to 100, 0 is no effect, 100 is complete control
[14] = Preemergence, 62 g ai/ha, scale of 0 to 100, 0 is no effect, 100 is complete control
[15] = Preemergence, 125 g ai/ha, scale 0 to 100, 0 no effect, 100 complete control
[16] = Preemergence, 250 g ai/ha, scale 0 to 100, 0 no effect, 100 complete control

Cc1nn(-c2ccc(C(F)(F)F)c(F)c2)nc1Oc1ccnc(C(F)(F)F)c1 [Compound 148]
35: Plant response rating, Ryegrass, Italian [2, 10] | Plant response rating, Foxtail, Giant [3, 10] | Plant response rating, Foxtail, Giant [3, 11] | Plant response rating, Oat, Wild (wild oat (Avena fatua); [13])
65: Plant response rating, Ryegrass, Italian [2, 12]
45: Plant response rating, Oat, Wild (wild oat (Avena fatua); [10]) | Plant response rating, Corn (corn (Zea mays); [16])
80: Plant response rating, Galium [1, 9] | Plant response rating, Galium [1, 13] | Plant response rating, Kochia (kochia (Kochia scoparia); [9]) | Plant response rating, Velvetleaf [4, 11] | Plant response rating, Velvetleaf [4, 16] | Plant response rating, Oat, Wild (wild oat (Avena fatua); [11]) | Plant response rating, Crabgrass, Large [7, 12] | Plant response rating, Johnsongrass [8, 14]
15: Plant response rating, Velvetleaf [4, 13] | Plant response rating, Oat, Wild (wild oat (Avena fatua); [9]) | Plant response rating, Corn (corn (Zea mays); [15]) | Plant response rating, Crabgrass, Large [7, 9] | Plant response rating, Johnsongrass [8, 13]
55: Plant response rating, Velvetleaf [4, 14] | Plant response rating, Corn (corn (Zea mays); [11]) | Plant response rating, Morningglory [6, 15] | Plant response rating, Johnsongrass [8, 11]
25: Plant response rating, Corn (corn (Zea mays); [9])
90: Plant response rating, Galium [1, 10] | Plant response rating, Galium [1, 11] | Plant response rating, Galium [1, 12] | Plant response rating, Ryegrass, Italian [2, 16] | Plant response rating, Kochia (kochia (Kochia scoparia); [15]) | Plant response rating, Oat, Wild (wild oat (Avena fatua); [12])
60: Plant response rating, Ryegrass, Italian [2, 11] | Plant response rating, Ryegrass, Italian [2, 14] | Plant response rating, Ryegrass, Italian [2, 15] | Plant response rating, Corn (corn (Zea mays); [12]) | Plant response rating, Crabgrass, Large [7, 10] | Plant response rating, Crabgrass, Large [7, 11]
20: Plant response rating, Morningglory [6, 13] | Plant response rating, Morningglory [6, 14] | Plant response rating, Johnsongrass [8, 9] | Plant response rating, Johnsongrass [8, 10]
70: Plant response rating, Velvetleaf [4, 15] | Plant response rating, Morningglory [6, 9]
75: Plant response rating, Foxtail, Giant [3, 12] | Plant response rating, Morningglory [6, 16]
40: Plant response rating, Kochia (kochia (Kochia scoparia); [13]) | Plant response rating, Kochia (kochia (Kochia scoparia); [14])
5: Plant response rating, Ryegrass, Italian [2, 13] | Plant response rating, Corn (corn (Zea mays); [13])
95: Plant response rating, Kochia (kochia (Kochia scoparia); [12]) | Plant response rating, Kochia (kochia (Kochia scoparia); [16])
98: Plant response rating, Foxtail, Giant [3, 13] | Plant response rating, Morningglory [6, 10] | Plant response rating, Morningglory [6, 11] | Plant response rating, Morningglory [6, 12] | Plant response rating, Johnsongrass [8, 12] | Plant response rating, Johnsongrass [8, 15] | Plant response rating, Johnsongrass [8, 16]
50: Plant response rating, Velvetleaf [4, 9] | Plant response rating, Velvetleaf [4, 10]
100: Plant response rating, Galium [1, 14] | Plant response rating, Galium [1, 15] | Plant response rating, Galium [1, 16] | Plant response rating, Foxtail, Giant [3, 14] | Plant response rating, Foxtail, Giant [3, 15] | Plant response rating, Foxtail, Giant [3, 16] | Plant response rating, Crabgrass, Large [7, 13] | Plant response rating, Crabgrass, Large [7, 14] | Plant response rating, Crabgrass, Large [7, 15] | Plant response rating, Crabgrass, Large [7, 16]
10: Plant response rating, Ryegrass, Italian [2, 9] | Plant response rating, Foxtail, Giant [3, 9] | Plant response rating, Corn (corn (Zea mays); [14])
30: Plant response rating, Corn (corn (Zea mays); [10])
85: Plant response rating, Kochia (kochia (Kochia scoparia); [10]) | Plant response rating, Kochia (kochia (Kochia scoparia); [11]) | Plant response rating, Velvetleaf [4, 12] | Plant response rating, Ducksalad (0 to 100 scale, 0 is no effect, 100 is complete control) [5] | Plant response rating, Oat, Wild (wild oat (Avena fatua); [14]) | Plant response rating, Oat, Wild (wild oat (Avena fatua); [15]) | Plant response rating, Oat, Wild (wild oat (Avena fatua); [16])

CCc1nn(-c2ccc(F)cc2)nc1Cc1ccnc(C(F)(F)F)c1 [Compound 154]
45: Plant response rating, Galium [1, 9] | Plant response rating, Velvetleaf [4, 10] | Plant response rating, Velvetleaf [4, 14] | Plant response rating, Crabgrass, Large [7, 11]
98: Plant response rating, Morningglory [6, 12]
40: Plant response rating, Morningglory [6, 9] | Plant response rating, Johnsongrass [8, 13] | Plant response rating, Johnsongrass [8, 14]
80: Plant response rating, Ducksalad (0 to 100 scale, 0 is no effect, 100 is complete control) [5]
65: Plant response rating, Velvetleaf [4, 12] | Plant response rating, Oat, Wild (wild oat (Avena fatua); [11]) | Plant response rating, Oat, Wild (wild oat (Avena fatua); [12]) | Plant response rating, Johnsongrass [8, 11]
20: Plant response rating, Foxtail, Giant [3, 9] | Plant response rating, Foxtail, Giant [3, 10] | Plant response rating, Corn (corn (Zea mays); [9]) | Plant response rating, Corn (corn (Zea mays); [10]) | Plant response rating, Corn (corn (Zea mays); [12]) | Plant response rating, Crabgrass, Large [7, 9]
30: Plant response rating, Ryegrass, Italian [2, 11] | Plant response rating, Ryegrass, Italian [2, 14] | Plant response rating, Crabgrass, Large [7, 10] | Plant response rating, Johnsongrass [8, 10]
25: Plant response rating, Morningglory [6, 16]
75: Plant response rating, Galium [1, 12] | Plant response rating, Foxtail, Giant [3, 12] | Plant response rating, Morningglory [6, 10] | Plant response rating, Morningglory [6, 11]
90: Plant response rating, Ryegrass, Italian [2, 15] | Plant response rating, Ryegrass, Italian [2, 16] | Plant response rating, Kochia (kochia (Kochia scoparia); [9]) | Plant response rating, Kochia (kochia (Kochia scoparia); [10]) | Plant response rating, Kochia (kochia (Kochia scoparia); [11]) | Plant response rating, Velvetleaf [4, 15] | Plant response rating, Crabgrass, Large [7, 13] | Plant response rating, Johnsongrass [8, 15]
100: Plant response rating, Galium [1, 16] | Plant response rating, Foxtail, Giant [3, 13] | Plant response rating, Foxtail, Giant [3, 14] | Plant response rating, Foxtail, Giant [3, 15] | Plant response rating, Foxtail, Giant [3, 16] | Plant response rating, Velvetleaf [4, 16] | Plant response rating, Crabgrass, Large [7, 14] | Plant response rating, Crabgrass, Large [7, 15] | Plant response rating, Crabgrass, Large [7, 16]
0: Plant response rating, Corn (corn (Zea mays); [13]) | Plant response rating, Morningglory [6, 13]
10: Plant response rating, Ryegrass, Italian [2, 10] | Plant response rating, Ryegrass, Italian [2, 13] | Plant response rating, Corn (corn (Zea mays); [15]) | Plant response rating, Johnsongrass [8, 9]
60: Plant response rating, Galium [1, 10]
95: Plant response rating, Kochia (kochia (Kochia scoparia); [12]) | Plant response rating, Johnsongrass [8, 16]
70: Plant response rating, Galium [1, 11] | Plant response rating, Crabgrass, Large [7, 12]
15: Plant response rating, Oat, Wild (wild oat (Avena fatua); [9]) | Plant response rating, Corn (corn (Zea mays); [16])
85: Plant response rating, Galium [1, 14] | Plant response rating, Galium [1, 15] | Plant response rating, Johnsongrass [8, 12]
35: Plant response rating, Ryegrass, Italian [2, 12] | Plant response rating, Velvetleaf [4, 9] | Plant response rating, Oat, Wild (wild oat (Avena fatua); [10])
55: Plant response rating, Foxtail, Giant [3, 11] | Plant response rating, Velvetleaf [4, 11]
5: Plant response rating, Galium [1, 13] | Plant response rating, Ryegrass, Italian [2, 9] | Plant response rating, Velvetleaf [4, 13] | Plant response rating, Corn (corn (Zea mays); [14]) | Plant response rating, Morningglory [6, 14] | Plant response rating, Morningglory [6, 15]
